In patent US20250122504A1, “COMBINATIONS WITH MODULATORS OF PNPLA3 EXPRESSION” (AstraZeneca AB, priority 2021, published 2025):
{GalNAc3} = triantennary N-acetylgalactosamine conjugate

Experiments:
[1] = Body weight change in Pnpla3^148M/M knock-in mice fed a NASH-inducing diet; assay type: in vivo, mouse; settings: Pnpla3^148M/M mice, NASH diet 36 weeks, treatment last 14 weeks; ASO 5 mg/kg/week s.c.; Cotadutide 1 nmol/kg daily s.c.; FIG. 1A
Procedure: All animal experiments were performed with humane care and were approved by the Gothenburg Ethics Committee for Experimental Animals in Sweden. The holding facility has received full accreditation from the Association for Assessment and Accreditation of Laboratory Animal Care (AAALAC). The human PNPLA3 […] mutation was introduced into the mouse Pnpla3 gene by replacing the isoleucine codon with a methionine codon in amino acid position 148 of the mouse Pnpla3 gene using homologous recombination as described before (Lindén et al Mol Metab, 2019, DOI: 10.1016/j.molmet.2019.01.013). Heterozygous Pnpla3^148I/M mice were intercrossed to generate experimental homozygous Pnpla3^148M/M knock-in mice for the pharmacology study. […]
Male Pnpla3^148M/M mice (6-8 weeks of age) were fed a diet high in fat (40 kcal % fat (non-trans fat Primex Shortening), fructose (20 kcal %) and cholesterol (2%) (NASH diet; D16022301, Research Diets, New Brunswick, NJ) for 22 weeks. The mice were then assigned to study groups based on body weight, and fed the same NASH diet and dosed with either 1) control ASO+saline, 2) Pnpla3 ASO+saline, 3) control ASO+Cotadutide, or 4) Pnpla3 ASO+Cotadutide for 14 weeks. […] Body weights were recorded during the study. […]

[2] = test system: Pnpla3^148M/M mice fed a NASH-inducing diet; assay: NAFLD activity score (NAS) and inflammation score from liver histology; assay type: in vivo, mouse; settings: 14 weeks treatment, FIG. 4
Procedure: (§1) Male Pnpla3^148M/M mice (6-8 weeks of age) were fed a diet high in fat (40 kcal % fat (non-trans fat Primex Shortening), fructose (20 kcal %) and cholesterol (2%) (NASH diet; D16022301, Research Diets, New Brunswick, NJ) for 22 weeks. The mice were then assigned to study groups based on body weight, and fed the same NASH diet and dosed with either 1) control ASO+saline, 2) Pnpla3 ASO+saline, 3) control ASO+Cotadutide, or 4) Pnpla3 ASO+Cotadutide for 14 weeks. The ASOs were dosed at 5 mg/kg/week administered by two subcutaneous injections per week with saline as vehicle. Cotadutide was dosed at 1 nmol/kg administered by daily subcutaneous injections with saline as vehicle. […] Body weights were recorded during the study. […]
The NAFLD activity score (NAS) was determined according to the method reported by Kleiner et al (Kleiner et al Hepatology, 2005, DOI: 10.1002/hep.20701). […]
Differences between treatment groups were examined using 1-way ANOVA followed by Tukey's post-hoc tests (GraphPad Prism v.8.0.1., GraphPad Software, CA). Differences between treatment groups for the NAFLD activity score (NAS) derived from liver histology were analyzed by ordinal regression analyses followed by correction of family-wise error rate using the Šidák method. […]

[3] = test system: Pnpla3^148M/M mice fed a NASH-inducing diet; assay: Liver fibrosis as liver collagen 1A1 content (immunohistochemistry); assay type: in vivo, mouse; settings: 14 weeks treatment, compared to control ASO, FIG. 5
Procedure: as §1
Four μm thick formaldehyde-fixed, paraffin-embedded mouse liver sections (one lover section per mouse) were routinely stained with hematoxylin-eosin (HE). […] Slides were scanned into Panoramic Scan II (3Dhistech, Hungary), and digital images were analyzed using the image analysis program Visiopharm (version 2020.03.0.7300, Visiopharm, Hørsholm, Denmark) by detecting stained area per total section area for Galectin-3 or Collagen 1A1.

mouse Pnpla3 mRNA = assay: Liver Pnpla3 mRNA by qPCR in Pnpla3^148M/M mice on NASH diet; assay type: in vivo; settings: 14 weeks treatment, ASO 5 mg/kg/week s.c., FIG. 1B
Procedure: Male Pnpla3^148M/M mice (6-8 weeks of age) were fed a diet high in fat (40 kcal % fat (non-trans fat Primex Shortening), fructose (20 kcal %) and cholesterol (2%) (NASH diet; D16022301, Research Diets, New Brunswick, NJ) for 22 weeks. The mice were then assigned to study groups based on body weight, and fed the same NASH diet and dosed with either 1) control ASO+saline, 2) Pnpla3 ASO+saline, 3) control ASO+Cotadutide, or 4) Pnpla3 ASO+Cotadutide for 14 weeks. The ASOs were dosed at 5 mg/kg/week administered by two subcutaneous injections per week with saline as vehicle. Cotadutide was dosed at 1 nmol/kg administered by daily subcutaneous injections with saline as vehicle. […] Body weights were recorded during the study. At sacrifice, unfasted mice were euthanized with isoflurane (Forene, Abbot Scandinavia AB, Sweden), blood was collected and plasma isolated, livers were collected, and pieces (same position in the left lateral lobe for all mice) were fixed with 4% formaldehyde in PBS for histology or snap-frozen in liquid N2 and stored at −80° C.
RNA was isolated from snap-frozen liver tissue using the RNeasy Mini Kit (Qiagen, Germany). The cDNA templates were generated by reverse transcription with a cDNA kit (ThermoFisher Scientific, Stockholm, Sweden) and used for real-time quantitative PCR with the QuantStudio 7 Flex instrument (Applied Biosystems, Stockholm, Sweden). […]

Compound	body weight-gain during the treatment period compared to control ASO treated animals [1]	NAFLD activity score (NAS) compared to control ASO treated animals [2]	liver fibrosis measured as liver collagen 1A1 content [3]	reduction of liver Pnpla3 mRNA levels (mouse Pnpla3 mRNA)
CCCCCCCCCCCCCCCC(=O)N[C@@H](CCC(=O)NCCCC[C@H](NC(=O)[C@H](CC(=O)O)NC(=O)[C@H](CO)NC(=O)[C@@H](NC(=O)[C@H](Cc1ccccc1)NC(=O)[C@@H](NC(=O)CNC(=O)[C@H](CCC(N)=O)NC(=O)[C@H](CO)NC(=O)[C@@H](N)Cc1c[nH]cn1)[C@@H](C)O)[C@@H](C)O)C(=O)N[C@@H](CO)C(=O)N[C@@H](CCC(=O)O)C(=O)N[C@@H](Cc1ccc(O)cc1)C(=O)N[C@@H](CC(C)C)C(=O)N[C@@H](CC(=O)O)C(=O)N[C@@H](CO)C(=O)N[C@@H](CCC(=O)O)C(=O)N[C@@H](CCCNC(=N)N)C(=O)N[C@@H](C)C(=O)N[C@@H](CCCNC(=N)N)C(=O)N[C@@H](CC(=O)O)C(=O)N[C@@H](Cc1ccccc1)C(=O)N[C@H](C(=O)N[C@@H](C)C(=O)N[C@@H](Cc1c[nH]c2ccccc12)C(=O)N[C@@H](CC(C)C)C(=O)N[C@@H](CCC(=O)O)C(=O)N[C@@H](C)C(=O)NCC(=O)NCC(=O)O)C(C)C)C(=O)O [Cotadutide]	reduced body weight-gain	reduced the NAS	tended to reduce the liver collagen 1A1 content	–
Pnpla3 ASO: mouse cEt-modified 16-mer ASO targeting mouse Pnpla3 gene (5′-TATTTTTGGTGTATCC-3′, SEQ ID NO: 37), 5′-conjugated with triantennary GalNAc3 (5' {GalNAc3}, sugars by position and backbone not given here; cEt-modified)	but not Pnpla3 ASO treatment reduced body weight-gain	reduced the NAS	tended to reduce liver fibrosis	≥ 97%
